SMILES strings stand for the structures.

For series [1], the system named is 4T1-HER2 cells. Nature of the series: Methylene blue staining for cell viability post treatment. Conditions: individual components; 1 Gy of 80 kVp x-rays; phosphor 25, 50, 100 μg/mL; UVADEX 10 uM 8-MOP. Format: cell-based, murine. From the text:
Methylene blue staining of viable 4T1-HER2 cells confirms that the device works well according to the target parameters identified above. A plate having six (6) wells is subjected to treatment. FIG. 11 is a photographic depiction showing of Methylene Blue stain for cell viability post treatment with X-ray, phosphors and UVADEX. One well (#1) is the control. One well (#2) has phosphor coated with EC and DLC (H100). One well (#3) has phosphor coated with EC (but no DLC). One well (#4) has drug UVADEX but no phosphors. One well (#5) has drug UVADEX and phosphors coated with EC and DLC. One well (#6) has drug UVADEX and phosphors coated with EC and no DLC.
All wells were exposed to the optimized x-ray initiation energy noted above. […] One added benefit to a dual coating is redundancy in safety of the treatment.
(§1) Other assays were used to provide independent complimentary information on cell viability, e.g. Methylene blue staining and ATP-induced Luminescence imaging (Cell-Titer-Glo® Luminescence Cell Viability Assay). The luminescence imaging permitted investigation of the cytotoxicity of psoralen activated directly with a UV lamp, and in the absence of phosphors and x-ray radiation.
FIGS. 13A-13D illustrates the efficacy of treatment in-vitro in 4T1-HER2 cells, utilizing a regimen of 1/10-diluted UVADEX (with equivalent of 10 uM 8-MOP), 50 μg/mL phosphor 1 Gy of 80 kVp x-rays. […]

Series [2] concerns 4T1-HER2 cells. Nature of the series: Cell viability by Guava flow cytometry (forward scattering) 48 hours after treatment. The settings on record: single component, 1 Gy of 80 kVp; UVADEX p=0.97, phosphors p=0.034. Format: cell-based, murine. As to the method: (§2) In-vitro studies were conducted on plated cells following standard procedures. Cells were maintained in RPMI-1640 supplemented with 10% fetal bovine serum and L-glutamine from GIBCO (Grand Island, N.Y.) growing in a humidified atmosphere of 5% CO2. After incubation, cells were trypsinized and plated evenly onto twelve 12-well plates for 24 hours. […] Each plate had 12 wells with three wells for each of the four treatment arms. The plates were then irradiated with x-rays by placing the plate at a known distance from the x-ray source (50 cm). After irradiation, the cells were incubated on the plate for 48 hours prior to performing flow cytometry. […]
(§3) Two primary flow cytometry analyses were used, both determined at 48 hours after treatment. […] The first analysis evaluated was metabolic cell viability (herein referred to as cell viability) calculated from the number of whole cells per well as determined using forward scattering (FSC). […]
(§4) FIGS. 13A-13D illustrates the efficacy of treatment in-vitro in 4T1-HER2 cells, utilizing a regimen of 1/10-diluted UVADEX (with equivalent of 10 uM 8-MOP), 50 μg/mL phosphor 1 Gy of 80 kVp x-rays. […] In FIG. 13A, cell viability after treatment (10 μM 8-MOP equivalent dilution of UVADEX, 50 μg/mL phosphor, 1 Gy of 80 kVp radiation) as determined by Guava flow cytome cytometry is depicted. […]
In general terms: In flow cytometry, cells or beads pass a laser one at a time.

For series [3], the system named is 4T1-HER2 cells. Nature of the series: Annexin V positivity by flow cytometry 48 hours after treatment. The format is cell-based, murine. The settings on record: 10 μM 8-MOP equivalent UVADEX, 50 μg/mL phosphor, 1 Gy of 80 kVp; UVADEX alone with or without x-ray. As to the method: as §2, §3, §4
Series [4] relates to CT2A (murine malignant glioma), 4T1 and KP-B (sarcoma) cell lines. In words: Cell-Titer-Glo Luminescence Cell Viability Assay on three cell lines. The format is cell-based. Conditions: psoralen 40 μM; UV light 0, 0.25, 0.5, 1.0 J/cm^2; N=4.
From the text: Guava Annexin V flow cell cytometry was used to quantify cytotoxicity in 3 murine tumor cell lines (mammary −4T1; 4T1-HER2, 4T1 stably transfected with the human HER2 oncogene; glioma-CT2A; sarcoma KP-B). The mouse breast cancer cell line 4T1 was purchased from ATCC. 4T1-HER2 was provided by Dr. Michael Kershaw (Cancer Immunology Program, Peter MacCallum Cancer Centre, Victoria, Australia) and maintained in DMEM with penicillin/streptomycin and 10% FBS The Sarcoma KP-B cell lines were derived from primary tumors LSL-Kras; p53 Flox/Flox mice (45).
as §1
FIG. 14B presents data on CT2A malignant glioma cells, for a range of treatment parameters including variable x-ray dose (0, 0.67 and 1 Gy), phosphor concentration (50 or 100 μg) and psoralen concentration (8-MOP) at 10, 20 and 40 μM respectively. […] N=4 for each cell line at each UV light condition (0, 0.25, 0.5, 1.0 J/cm^2). The psoralen concentration was 40 μM. […]

In the case of `COc1c2occc2cc2ccc(=O)oc12` [UVADEX, 8-methoxypsoralen], in the series on 4T1-HER2 cells [1], the “effect in methyl blue staining” value is “little effect”. Besides, the “reduction in cell viability when radiation was added” value with 4T1-HER2 cells [2] is on record as “no significant effect”. In addition, in the series with 4T1-HER2 cells [3], the “increase in Annexin V staining (apoptotic activity)” value is on record as “negligible apoptotic activity”.
With `O=c1ccc2cc3ccoc3cc2o1` [psoralen], the “viable cells after UV light activated psoralen” value in series [4] was “reduce viable cells in 3 cell lines”.

Source of the values: patent publication US11577092B2, “Phosphor-containing drug activator activatable by a monte carlo derived X-ray exposure, system containing the activator, and methods for use” (IMMUNOLIGHT, LLC, priority 2016, dated 2023).
